Series [1] deals with T1, Rac GTPase-activating protein 1 (Homo sapiens, UniProt Q9H0H5).
T1 sequence (Q9H0H5 whole entry): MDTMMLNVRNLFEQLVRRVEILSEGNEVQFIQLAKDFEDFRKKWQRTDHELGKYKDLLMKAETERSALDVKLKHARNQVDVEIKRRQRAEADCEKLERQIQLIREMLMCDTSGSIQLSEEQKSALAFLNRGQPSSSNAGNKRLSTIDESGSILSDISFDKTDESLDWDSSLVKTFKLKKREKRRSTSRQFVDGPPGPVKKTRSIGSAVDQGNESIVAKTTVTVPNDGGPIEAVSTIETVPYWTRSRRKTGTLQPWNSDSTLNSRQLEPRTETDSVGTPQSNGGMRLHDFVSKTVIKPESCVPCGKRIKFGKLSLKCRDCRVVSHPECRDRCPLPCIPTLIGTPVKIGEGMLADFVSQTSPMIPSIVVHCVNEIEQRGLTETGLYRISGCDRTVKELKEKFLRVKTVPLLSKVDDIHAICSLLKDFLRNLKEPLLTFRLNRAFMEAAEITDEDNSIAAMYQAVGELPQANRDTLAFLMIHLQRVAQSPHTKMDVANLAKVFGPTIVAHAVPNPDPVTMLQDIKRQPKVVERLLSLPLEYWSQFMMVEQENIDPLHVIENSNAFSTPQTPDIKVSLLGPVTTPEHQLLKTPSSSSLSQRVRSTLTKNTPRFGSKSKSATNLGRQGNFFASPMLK
Put plainly: MgcRacGAP GTPase-activating activity inhibitors, confirmation, biochemical, ADP Hunter fluorescence, primary and confirmatory (AID 624330). Format: functional.

For another series, the target named is Cytochrome P450 2C9 (Homo sapiens, UniProt P11712).
Chain of Cytochrome P450 2C9 (P11712 whole entry): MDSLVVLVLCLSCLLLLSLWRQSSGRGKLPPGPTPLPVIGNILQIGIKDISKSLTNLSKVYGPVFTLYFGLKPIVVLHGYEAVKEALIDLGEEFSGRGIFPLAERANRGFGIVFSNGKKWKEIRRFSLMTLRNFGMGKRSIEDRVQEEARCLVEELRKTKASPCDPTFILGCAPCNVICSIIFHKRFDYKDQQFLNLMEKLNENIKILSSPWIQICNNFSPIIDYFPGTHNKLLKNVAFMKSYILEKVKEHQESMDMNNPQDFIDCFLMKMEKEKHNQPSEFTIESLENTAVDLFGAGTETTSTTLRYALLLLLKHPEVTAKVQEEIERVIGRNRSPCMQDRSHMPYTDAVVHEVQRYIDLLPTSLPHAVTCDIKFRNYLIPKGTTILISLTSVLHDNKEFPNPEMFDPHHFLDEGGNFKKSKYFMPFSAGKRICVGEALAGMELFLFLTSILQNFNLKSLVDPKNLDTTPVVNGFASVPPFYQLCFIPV
Series [2] in a line: Luminescence Cell-Based Dose Retest to Confirm Inhibitors of Cancer Stem Cells. [Related pubchem assays (depositor defined):AID2717, AID2721]. Format: functional. The following applies: Homo sapiens.
The next series deals with Cytochrome P450 2C19 (Homo sapiens, UniProt P33261). The series is described as follows: Cytochrome panel assay with activity outcomes. Panel member name: p450-cyp2c19 Compounds with AC50 equal or less than 10 uM are considered active. Format: functional.
Chain of Cytochrome P450 2C19 (P33261 whole entry): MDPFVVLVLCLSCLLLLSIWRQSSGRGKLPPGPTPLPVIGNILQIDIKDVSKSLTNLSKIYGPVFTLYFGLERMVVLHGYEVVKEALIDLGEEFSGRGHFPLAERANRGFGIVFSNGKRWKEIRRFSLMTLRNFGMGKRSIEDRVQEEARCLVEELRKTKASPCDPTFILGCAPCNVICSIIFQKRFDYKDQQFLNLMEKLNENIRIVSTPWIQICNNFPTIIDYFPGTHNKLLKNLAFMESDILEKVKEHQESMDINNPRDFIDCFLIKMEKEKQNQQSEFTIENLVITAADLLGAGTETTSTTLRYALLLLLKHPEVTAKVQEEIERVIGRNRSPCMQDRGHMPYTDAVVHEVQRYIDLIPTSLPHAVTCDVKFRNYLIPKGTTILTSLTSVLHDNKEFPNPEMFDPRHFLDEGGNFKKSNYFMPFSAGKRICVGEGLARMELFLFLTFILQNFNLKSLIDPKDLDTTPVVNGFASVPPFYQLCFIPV
A short description of series [3]: inhibitors of intracellular T. cruzi replication, confirmation, NIH3T3 host cells, beta-gal luminescence (AID 2044).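 Note: intracellular parasites grown in NIH/3T3 mouse fibroblasts as host cells; luminescent beta-galactosidase reporter signal from transgenic T. cruzi replicating inside host cells; inhibitors lower the luminescence signal.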 It counts as functional, cell-based.
Series [4] is described as follows: cytotoxicity toward NIH3T3 fibroblasts, dose response, counter-screen, cell-based, ATP luminescence, mouse fibroblasts (AID 2010).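 Note: cells exposed to compound for about 90 hours before reading.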 Format: functional. (In general: Counterscreens check selectivity or assay interference.)
A further series deals with Cytochrome P450 3A4 (Homo sapiens, UniProt P08684).
Chain of Cytochrome P450 3A4 (P08684 whole entry): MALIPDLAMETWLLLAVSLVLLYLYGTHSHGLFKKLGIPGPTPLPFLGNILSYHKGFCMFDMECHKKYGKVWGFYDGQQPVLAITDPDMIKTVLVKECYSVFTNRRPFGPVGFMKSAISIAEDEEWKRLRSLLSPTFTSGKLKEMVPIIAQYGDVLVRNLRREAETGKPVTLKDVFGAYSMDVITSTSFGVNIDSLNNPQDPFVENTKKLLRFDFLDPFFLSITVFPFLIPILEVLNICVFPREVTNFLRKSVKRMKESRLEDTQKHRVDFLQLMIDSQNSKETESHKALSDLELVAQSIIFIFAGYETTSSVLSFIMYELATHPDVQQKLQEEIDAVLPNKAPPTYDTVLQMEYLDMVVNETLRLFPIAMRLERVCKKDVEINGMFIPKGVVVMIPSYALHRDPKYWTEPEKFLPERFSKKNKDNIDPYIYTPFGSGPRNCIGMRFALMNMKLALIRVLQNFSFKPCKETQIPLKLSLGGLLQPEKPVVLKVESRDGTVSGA
The subject of another series is Streptococcus. Put plainly: Group A Streptococcus viability loss, dose response, counter-screen for streptokinase expression inhibitor project, luminescence, BacTiterGlo (AID 1915).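 Note: potency for reduction of bacterial viability or growth.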 Format: functional, organism-based. The following applies: read-out: EC50.
For series [5], the system named is Streptococcus sp. 'group A'. Put plainly: growth inhibition of control SK(-) GAS strain, dose response, counter-screen for streptokinase expression inhibitor project, luminescence, kanamycin, BacTiterGlo, confirmation (AID 1900). Format: functional, organism-based.

One may read the IC50 as the concentration needed to halve the response being measured. One may read the AC50 as the concentration at which the activity in the assay is half-maximal. One may read the EC50 as the concentration giving half of the maximal effect.

Activity calls are given as the source filed them.

As to `O=c1[nH]c2ccccc2n2c(S)nnc12`, the IC50 in series [1] is 109 µM (active).

With `COc1ccc(Cc2nnc(NC(=O)c3cccc([N+](=O)[O-])c3C)s2)cc1`, on Cytochrome P450 2C9, the AC50 is 0.794 µM (inconclusive).

For the molecule `CC(C)CC(=O)c1c(O)c(C=O)c(O)c2c1O[C@@]1(C)[C@@H](C2)C[C@H]2C[C@@H]1C2(C)C` [EUGLOBAL G1], the concentration at half-maximal activity (AC50) in series [2] was 2.68 µM (active).

In the case of `COc1ccc(-n2nc3cc(C)c(NC(=S)NC(=O)c4ccccc4C)cc3n2)cc1`, the half-maximal activity concentration (AC50) at Cytochrome P450 2C9 was 6.31 µM (inconclusive).

As for `CC(=O)Nc1ccc(OCC(O)CN2CCN(c3ccc(C)c(Cl)c3)CC2)cc1` (stereo not drawn), the concentration at half-maximal activity (AC50) in series [2] is 7.01 µM (active).

Turning to `Cc1nc2c([nH]1)c(=O)n(C)c(=O)n2Cc1ccco1` [FURAFYLLINE], the half-maximal activity concentration (AC50) result on Cytochrome P450 2C19 is on record as “inconclusive”.

On to `C/N=c1\scc(-c2ccc(OC)cc2)n1/N=C(\C)c1cccnc1`, for which the EC50 in series [3] was 1.79 µM (active); in [4] it was > 30 µM (not active).

Take `Cc1cccc(C(=O)N/N=C/c2ccc(OCC(=O)N3CCCCC3)cc2)c1`: the AC50 at Cytochrome P450 2C9 was 39.8 µM (inconclusive).

Regarding `CCOC(=O)c1c(O)nc(O)c(CC)c1C`, the AC50 at Cytochrome P450 2C19 (read-out: AC50) was 2.51 µM (inconclusive).

Turning to `Cn1c(=O)[nH]c(N)c(Br)c1=O`, in series [1], the IC50 was 84.3 µM (active).

Take `CC(=O)Nc1ccc(Nc2ncnc3c2cnn3-c2ccccc2)cc1`: the AC50 at Cytochrome P450 3A4 is 35.5 µM (inconclusive).

With `O=[N+]([O-])c1ccc(CNCCc2ccccc2)cc1`, the EC50 was 0.528 µM (active) in series [3] and > 60 µM (not active) in series [4].

Regarding `COc1ccc(NC(=O)N2CC3(CCN(S(=O)(=O)c4ccccc4)CC3)C2)cc1`, the AC50 at Cytochrome P450 3A4 was 15.8 µM (inconclusive).

In the case of `c1cncc(CNc2nc(-c3ccc4c(c3)OCO4)nc3ccccc23)c1`, on Cytochrome P450 2C9, the AC50 was 0.398 µM (inconclusive).

Regarding `Fc1ccccc1Cc1noc(CN2CCN(Cc3ccc4c(c3)OCO4)CC2)n1`, the EC50 was 1.03 µM (active) in series [3] and > 60 µM (not active) in series [4].

Regarding `Cc1cc(N(CN2CCCC2=O)C(=O)c2ccc(F)cc2)no1`, the AC50 at Cytochrome P450 3A4 is 3.98 µM (inconclusive).

As to `O=C(Nc1ccccc1)N1CCCC2(CCN(C(=O)c3cnccn3)CC2)C1`, on Cytochrome P450 3A4, the AC50 is 25.1 µM (inconclusive).

For the molecule `Cc1ccc(-c2nc(C(=O)NCCCN3CCOCC3)cc3c2[nH]c2ccccc23)cc1`, the half-maximal effective concentration (EC50) is 1.36 µM (active) in series [3] and > 30 µM (not active) in [4].

In the case of `CC(C)CC(=O)Nc1sc2c(c1C#N)CC(C)(C)NC2(C)C`, the half-maximal activity concentration (AC50) at Cytochrome P450 3A4 was 14.1 µM (inconclusive); at Cytochrome P450 2C19 (read-out: AC50), 28.2 µM (inconclusive).

With `Nc1c(C(O)(C(F)(F)F)C(F)(F)F)cc(C(O)(C(F)(F)F)C(F)(F)F)c2ccccc12`, in series [2], the AC50 was 2.46 µM (active).

For the molecule `Oc1cc(C(F)(F)F)nc2c(OC(F)(F)F)cccc12`, the AC50 in series [2] is 22.4 µM (active).

In the case of `Cc1ccc(NC(=O)CCC(=O)c2ccc(F)cc2)cc1Cl`, the AC50 at Cytochrome P450 2C9 is 0.891 µM (inconclusive).

Regarding `COc1ccc(Oc2ncc3ncc(=O)n(C4CC4)c3n2)cc1`, the AC50 is 25.1 µM (inconclusive) at Cytochrome P450 2C9, 25.1 µM (inconclusive) on Cytochrome P450 3A4 and 0.316 µM (inconclusive) on Cytochrome P450 2C19 (read-out: AC50).

Turning to `O=C(O)/C(=C\c1ccncc1)c1cccc2ccccc12`, the concentration at half-maximal activity (AC50) on Cytochrome P450 2C9 was 3.16 µM (inconclusive).

Take `CC(=O)[C@@H]1CC[C@@H]2[C@@H]3C[C@H](C)C4=CC(=O)CC[C@@]4(C)[C@H]3[C@H](O)C[C@]21C`: the concentration at half-maximal activity (AC50) on Cytochrome P450 3A4 was 7.94 µM (inconclusive).

For `CC(=O)Nc1ccc(S(=O)(=O)c2ccc([N+](=O)[O-])cc2)cc1`, the half-maximal effective concentration (EC50) in series [3] was 0.661 µM (active); in [4], > 60 µM (not active).

In the case of `CC(C)c1nc2sc3ccccc3c(=O)c2c(=O)n1Cc1ccccc1`, in [2], the concentration at half-maximal activity (AC50) is 0.796 µM (active).

Take `O=C1CSC(=S)N1Nc1ccccc1`: the IC50 in [1] was 54 µM (active).

Consider `COc1ccc(NC2CCCN(C(=O)c3ccc(CSC)o3)C2)cc1OC` (stereo not drawn), for which, in series [1], the IC50 was 109 µM (active).

With `CN(C)CCCNCC(=O)c1c(-c2ccccc2)n(C)c2ccccc12`, the 50% inhibitory concentration (IC50) in series [1] is 94.7 µM (active).

`N#Cc1ccccc1S(=O)(=O)N1CCN(C(=O)Cc2coc3cc(O)ccc23)CC1`: the IC50 in series [1] was 32.6 µM (active).

Take `CCCCN1CSC(=S)N(Cc2ccccc2)C1`: the values for the AC50 at Cytochrome P450 2C9 and on Cytochrome P450 3A4 were 7.94 µM (inconclusive) and 3.16 µM (inconclusive), respectively.

`O=C(Nc1cccc2ccccc12)c1ccc([N+](=O)[O-])s1`: the half-maximal effective concentration (EC50) in series [3] is 0.407 µM (active); in [4], > 60 µM (not active).

Turning to `C/C(=N\NC(=O)c1cc2ccccc2cc1O)c1cc2ccccc2o1`, the EC50 in the series with Streptococcus was 4.11 µM (active); in series [5], 1.77 µM (active).

Turning to `CCN(CC)c1ccc(NC(=O)COC(=O)Cc2ccsc2)cc1`, the IC50 in [1] was 38 µM (active).

As for `O=C(N/N=C/c1ccc(Cl)c([N+](=O)[O-])c1)c1cc(-c2ccccc2)nc2ccccc12`, in series [2], the concentration at half-maximal activity (AC50) was 2.08 µM (active).

`Cc1ccc(S(=O)(=O)CCCS(=O)(=O)c2ccc(C)cc2)cc1`: at Cytochrome P450 2C9, the concentration at half-maximal activity (AC50) is 5.01 µM (inconclusive).

Regarding `OC(CN1CCN(c2ccccn2)CC1)Cn1c2ccc(Cl)cc2c2cc(Cl)ccc21` (stereo not drawn), the half-maximal activity concentration (AC50) in [2] was 3.21 µM (active).

With `CCNc1nc(NCC)nc(N/N=C/c2ccc(O)c(O)c2)n1`, the IC50 in series [1] was 45.5 µM (active).

In the case of `CCOc1cc(/C=N/NC(=O)c2cc(C)[nH]n2)ccc1OC(=O)c1ccc([N+](=O)[O-])cc1`, the half-maximal activity concentration (AC50) on Cytochrome P450 2C9 is 1.78 µM (inconclusive); at Cytochrome P450 3A4, 22.4 µM (inconclusive); on Cytochrome P450 2C19 it was “inconclusive”.

With `CC(=O)Nc1cc(C(F)(F)F)ccc1Oc1cccc(Br)c1`, the concentration at half-maximal activity (AC50) at Cytochrome P450 3A4 is 12.6 µM (inconclusive); on Cytochrome P450 2C19 (read-out: AC50), 0.316 µM (inconclusive).

In the case of `Cc1ccc(CNC(=O)CCC2CCCN(Cc3cccc4ncccc34)C2)o1` (stereo not drawn), the EC50 in series [3] is 0.193 µM (active); in series [4], > 60 µM (inconclusive).

As for `O=C(NCC(c1ccco1)N1CCCC1)c1ccccc1Sc1ccc(C(F)(F)F)cc1[N+](=O)[O-]` (stereo not drawn), the concentration for a half-maximal effect (EC50) was 1.64 µM (active) in [3] and > 60 µM (not active) in [4].

For the molecule `O=c1c2c(-c3ccc(Cl)cc3)csc2nc2n1CCC2`, at Cytochrome P450 3A4, the half-maximal activity concentration (AC50) is 12.6 µM (inconclusive).

As to `CCCC/C=C/C(NC(=O)c1ccc(C(F)(F)F)cc1)c1ccccc1` (stereo not drawn), the AC50 at Cytochrome P450 3A4 was 10 µM (inconclusive).

As for `C/C(=C\C(=O)c1ccccc1)Nc1ccc(N2CCOCC2)cc1`, the EC50 in series [3] was 6.78 µM (active); in series [4] it was > 60 µM (not active).

As for `NC(S)=Nc1cc2ccccc2c2ccccc12`, the AC50 at Cytochrome P450 2C9 is 0.282 µM (inconclusive).

Turning to `O=C(c1ccco1)N1CCN(C(=O)C2(S(=O)(=O)c3ccc(Cl)cc3)CC2)CC1`, the figures for the concentration at half-maximal activity (AC50) on Cytochrome P450 2C9, at Cytochrome P450 3A4 and on Cytochrome P450 2C19 (read-out: AC50) were 17.8 µM (inconclusive), 25.1 µM (inconclusive) and 28.2 µM (inconclusive), respectively.

`Fc1ccc(N2CCN(c3ncnc4c3nnn4Cc3ccccc3Cl)CC2)cc1`: the 50% effective concentration (EC50) is 2.46 µM (active) in series [3] and > 60 µM (inconclusive) in series [4].

On to `CCNc1ncc2nc(-c3ccccc3)c(=O)n(Cc3cccc(OC)c3)c2n1`, for which the AC50 on Cytochrome P450 2C19 (read-out: AC50) is 39.8 µM (inconclusive).

In the case of `O=C(Nc1ccccc1C(=O)NCC1CCCO1)c1ccc(Cl)cc1Cl` (stereo not drawn), on Cytochrome P450 3A4, the half-maximal activity concentration (AC50) was 4.47 µM (inconclusive).

For the molecule `C/C(Cn1cnc([N+](=O)[O-])n1)=N/NC(=O)COc1c(Cl)cc(Cl)cc1Cl`, the EC50 in [3] is 0.143 µM (active); in series [4] it was > 60 µM (not active).

Consider `COC(=O)C(C)(C(=O)OC)c1ccc([N+](=O)[O-])cn1`, for which the AC50 on Cytochrome P450 2C19 (read-out: AC50) is 39.8 µM (inconclusive).

Turning to `Brc1ccc(OCCn2ccnc2)cc1`, the 50% effective concentration (EC50) in [3] is 3.15 µM (active); in series [4] it was > 60 µM (not active).

On to `O=C1CN(c2nc(-c3ccccc3)c3cc(Br)ccc3n2)c2ccccc2N1`, for which the half-maximal activity concentration (AC50) at Cytochrome P450 3A4 is 7.08 µM (inconclusive).

Turning to `CCCCNC(=O)C1C2C=CC3(CN(Cc4ccccc4Cl)C(=O)C13)O2` (stereo not drawn), the AC50 at Cytochrome P450 2C9 was 17.8 µM (inconclusive).

Source of the values: ChEMBL document CHEMBL1201862, “PubChem BioAssay data set” (2004).
